Experimental data as given in US20260297085A1, “1 H-PYRROLO[2,3-B]PYRIDIN-4-YL]-2-OXOPYRROLIDINE-3-CARBONITRILE DERIVATIVES AS TYROSINE KINASE 2 (TYK2) INHIBITORS FOR THE TREATMENT OF INFLAMMATORY DISEASES” (BIOGEN MA INC., priority 2023, published 2026).
Structures can show the parent of a compound that is named as a salt.

How the values were obtained:
[1] = molecular target: T1, human TYK2 kinase domain (JH1) (Homo sapiens, UniProt P29597); assay: JH1 biochemical assay for TYK2 (ADP-Glo kinase assay, recombinant JH1 catalytic domain, JAK3-974 peptide, 10 μM ATP)
T1 construct: recombinantly generated catalytic kinase (also known as JH1) domain of human JAK1, JAK2, JAK3 and TYK2
T1 sequence (P29597 897-1176 limits assumed): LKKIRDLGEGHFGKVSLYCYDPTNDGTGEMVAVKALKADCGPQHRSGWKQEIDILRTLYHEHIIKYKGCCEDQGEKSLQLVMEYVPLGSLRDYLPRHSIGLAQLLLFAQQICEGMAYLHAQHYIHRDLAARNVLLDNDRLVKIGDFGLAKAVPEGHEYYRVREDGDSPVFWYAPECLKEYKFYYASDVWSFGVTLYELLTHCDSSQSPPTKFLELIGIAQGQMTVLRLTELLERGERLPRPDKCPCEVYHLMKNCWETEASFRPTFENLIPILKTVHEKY
Method in brief: (§1)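 ADP-Glo luminescence with 50 μM peptide and 100 min reactions: JAK1 4 nM with JAK3-342 peptide; JAK2, JAK3 and TYK2 at 0.2, 0.3 and 2 nM with JAK3-974 peptide. Compounds tested from 10 or 1 μM top, 11 points, 3-fold. IC50 from a 4-parameter logistic fit of normalized activity.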

[2] = molecular target: T2, human JAK1 kinase domain (JH1) (Homo sapiens, UniProt P23458); assay: JH1 biochemical assay for JAK1 (ADP-Glo kinase assay, recombinant JH1 catalytic domain, JAK3-342 peptide, 35 μM ATP)
T2 construct: recombinantly generated catalytic kinase (also known as JH1) domain of human JAK1, JAK2, JAK3 and TYK2
Method in brief: as §1

[3] = molecular target: T3, human JAK2 kinase domain (JH1) (Homo sapiens, UniProt O60674); assay: JH1 biochemical assay for JAK2 (ADP-Glo kinase assay, recombinant JH1 catalytic domain, JAK3-974 peptide, 15 μM ATP)
T3 construct: recombinantly generated catalytic kinase (also known as JH1) domain of human JAK1, JAK2, JAK3 and TYK2
Method in brief: as §1

[4] = molecular target: T4, human JAK3 kinase domain (JH1) (Homo sapiens, UniProt P52333); assay: JH1 biochemical assay for JAK3 (ADP-Glo kinase assay, recombinant JH1 catalytic domain, JAK3-974 peptide, 4 μM ATP)
T4 construct: recombinantly generated catalytic kinase (also known as JH1) domain of human JAK1, JAK2, JAK3 and TYK2
Method in brief: as §1

[5] = molecular target: Tyk2 kinase activity on STAT4 in NK92 cells (Homo sapiens, UniProt P29597); assay: pSTAT4 cell assay (MSD; NK92 cells, 30 ng/mL IL2 stimulation); type: cell-based; details: 30 ng/mL IL2, 15 minutes
Procedure: The inhibitory potency of compounds of the disclosure against the Tyk2 kinase activity on STAT4 was evaluated using an MSD-platform plate-based assay format. NK92 cells natively expressing STAT4 and Tyk2 were serum-starved to reduce background phosphorylation levels, then cells were treated compounds for 1 hr with a 10-point four-fold dilution series starting at 10 μM. Cells were then stimulated with 30 ng/mL IL2 for 15 minutes. Cells were lysed and […] levels were quantitated using an MSD plate-based assay with anti-STAT4 antibodies. The data were normalized and the percent activity versus log concentration of compound were fitted with a 4-parameter logistic model to generate to generate IC50 curves.

T3 sequence (O60674 849-1124 limits assumed): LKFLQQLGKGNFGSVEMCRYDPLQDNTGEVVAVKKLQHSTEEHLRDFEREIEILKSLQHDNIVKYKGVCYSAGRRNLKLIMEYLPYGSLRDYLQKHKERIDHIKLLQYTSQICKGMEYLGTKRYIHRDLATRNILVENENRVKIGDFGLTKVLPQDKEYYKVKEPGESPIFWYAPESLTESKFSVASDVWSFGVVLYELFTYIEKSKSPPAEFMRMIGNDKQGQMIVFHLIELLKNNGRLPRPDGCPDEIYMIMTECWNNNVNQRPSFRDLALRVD
Sequence of Tyk2 kinase activity on STAT4 in NK92 cells (P29597 whole entry): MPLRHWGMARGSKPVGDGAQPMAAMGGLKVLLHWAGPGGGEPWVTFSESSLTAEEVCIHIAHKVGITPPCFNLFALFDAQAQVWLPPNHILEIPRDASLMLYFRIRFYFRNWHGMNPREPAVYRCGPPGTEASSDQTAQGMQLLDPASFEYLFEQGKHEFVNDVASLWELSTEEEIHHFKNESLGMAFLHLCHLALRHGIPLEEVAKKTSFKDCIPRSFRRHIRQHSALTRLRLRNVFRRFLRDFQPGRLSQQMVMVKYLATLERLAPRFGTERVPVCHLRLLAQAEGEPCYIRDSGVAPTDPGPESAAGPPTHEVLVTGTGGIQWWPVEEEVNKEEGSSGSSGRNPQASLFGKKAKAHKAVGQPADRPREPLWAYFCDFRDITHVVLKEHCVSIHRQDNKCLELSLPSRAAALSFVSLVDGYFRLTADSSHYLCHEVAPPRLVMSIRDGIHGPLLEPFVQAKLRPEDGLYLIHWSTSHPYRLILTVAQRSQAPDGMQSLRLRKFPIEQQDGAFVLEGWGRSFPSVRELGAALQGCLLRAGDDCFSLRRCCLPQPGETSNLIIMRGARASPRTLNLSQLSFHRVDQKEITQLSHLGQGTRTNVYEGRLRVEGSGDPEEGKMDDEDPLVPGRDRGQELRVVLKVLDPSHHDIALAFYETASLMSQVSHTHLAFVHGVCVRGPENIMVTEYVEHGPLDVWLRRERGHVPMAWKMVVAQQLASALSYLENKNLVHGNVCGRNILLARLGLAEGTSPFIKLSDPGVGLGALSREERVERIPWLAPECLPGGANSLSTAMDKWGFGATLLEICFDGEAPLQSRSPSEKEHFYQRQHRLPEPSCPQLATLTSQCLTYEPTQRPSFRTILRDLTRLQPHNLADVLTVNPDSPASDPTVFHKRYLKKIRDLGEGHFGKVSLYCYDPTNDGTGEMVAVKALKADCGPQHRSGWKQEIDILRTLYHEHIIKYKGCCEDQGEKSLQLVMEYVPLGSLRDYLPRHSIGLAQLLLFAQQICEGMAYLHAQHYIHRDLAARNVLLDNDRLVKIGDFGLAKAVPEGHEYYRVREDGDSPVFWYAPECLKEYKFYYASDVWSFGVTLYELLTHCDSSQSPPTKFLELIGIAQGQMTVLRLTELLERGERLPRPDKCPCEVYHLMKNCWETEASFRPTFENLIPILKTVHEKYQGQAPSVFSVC
T4 sequence (P52333 822-1111 limits assumed): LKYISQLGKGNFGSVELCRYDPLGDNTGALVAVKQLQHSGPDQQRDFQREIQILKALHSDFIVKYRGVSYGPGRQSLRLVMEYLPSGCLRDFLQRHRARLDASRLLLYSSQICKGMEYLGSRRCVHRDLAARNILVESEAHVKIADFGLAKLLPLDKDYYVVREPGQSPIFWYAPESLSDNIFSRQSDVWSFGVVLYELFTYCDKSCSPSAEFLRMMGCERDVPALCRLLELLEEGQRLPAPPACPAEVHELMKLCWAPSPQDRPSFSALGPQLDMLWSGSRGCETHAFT
T2 sequence (P23458 875-1153 limits assumed): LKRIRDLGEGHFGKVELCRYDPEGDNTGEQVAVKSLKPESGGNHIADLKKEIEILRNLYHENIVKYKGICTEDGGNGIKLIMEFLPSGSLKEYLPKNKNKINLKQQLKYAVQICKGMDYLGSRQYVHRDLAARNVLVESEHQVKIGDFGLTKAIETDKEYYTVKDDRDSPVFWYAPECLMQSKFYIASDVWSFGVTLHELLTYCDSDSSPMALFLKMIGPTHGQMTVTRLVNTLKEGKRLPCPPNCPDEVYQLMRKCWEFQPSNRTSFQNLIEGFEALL

| IC50 ([1]; TYK2 JH1, ADP-Glo) [nM] | IC50 ([2]; JAK1 JH1, ADP-Glo) [nM] | IC50 ([3]; JAK2 JH1, ADP-Glo) [nM] | IC50 ([4]; JAK3 JH1, ADP-Glo) [nM] | IC50 [5] [nM] | IC50 ([1]; JH1 kinase domain, ADP-Glo) [nM] | IC50 ([2]; JH1 kinase domain, ADP-Glo) [nM] | IC50 ([3]; JH1 kinase domain, ADP-Glo) [nM] | IC50 ([4]; JH1 kinase domain, ADP-Glo) [nM] | SMILES |
| --- | --- | --- | --- | --- | --- | --- | --- | --- | --- |
| < 5 | < 100 | < 100 | < 100 | 20 to 50 |  |  |  |  | C[C@@H]1CN(c2ccnn3cc(-c4cnn(CC5(C)COC5)c4)cc23)C(=O)[C@]1(C#N)C1CC1 [Example 325, (3R,4S)-3-cyclopropyl-4-methyl-1-(6-(1-((3-methyloxetan-3-yl)methyl)-1H-pyrazol-4-yl)pyrrolo[1,2-b]pyridazin-4-yl)-2-oxopyrrolidine-3-carbonitrile] |
| < 5 | 100 to 1000 | 100 to 1000 | < 100 | 50 to 100 |  |  |  |  | C[C@@H]1CN(c2ccnn3cc(-c4cnn(C5(CO)CC5)c4)cc23)C(=O)[C@]1(C#N)C1CC1 [Example 322, (3R,4S)-3-cyclopropyl-1-(6-(1-(1-(hydroxymethyl)cyclopropyl)-1H-pyrazol-4-yl)pyrrolo[1,2-b]pyridazin-4-yl)-4-methyl-2-oxopyrrolidine-3-carbonitrile] |
| < 5 | < 100 | < 100 | < 100 | > 100 |  |  |  |  | C[C@@H]1CN(c2ccnn3cc(-c4cnn([C@@H]5COCC(F)(F)C5)c4)cc23)C(=O)[C@]1(C#N)C1CC1 (single isomer, unassigned) [Example 328] |
| 5 to 20 | 100 to 1000 | 1000 to 5000 | 100 to 1000 | > 100 |  |  |  |  | Cc1cc(-c2cc(N3C[C@@H](C)[C@@](C#N)(C4CC4)C3=O)c3ccnn3c2)n[nH]1 [Example 318, (3R,4S)-3-cyclopropyl-4-methyl-1-(6-(5-methyl-1H-pyrazol-3-yl)pyrazolo[1,5-a]pyridin-4-yl)-2-oxopyrrolidine-3-carbonitrile] |
|  |  |  |  |  | > 100 | > 10000 | 1000 to 5000 | 5000 to 10000 | C[C@@H]1CN(c2ccnn3cc(-c4nnc5n4CCCC5)cc23)C(=O)[C@]1(C#N)C1CC1 [Example 105, (3R,4S)-3-cyclopropyl-4-methyl-2-oxo-1-(6-(5,6,7,8-tetrahydro-[1,2,4]triazolo[4,3-a]pyridin-3-yl)pyrrolo[1,2-b]pyridazin-4-yl)pyrrolidine-3-carbonitrile trifluoroacetate] |
|  |  |  |  |  | 20 to 50 | 1000 to 5000 | 1000 to 5000 | 1000 to 5000 | C[C@@H]1CN(c2ccnn3cc(-c4cncn4C)cc23)C(=O)[C@]1(C#N)C1CC1 [Example 89, (3R,4S)-3-cyclopropyl-4-methyl-1-(6-(1-methyl-1H-imidazol-5-yl)pyrrolo[1,2-b]pyridazin-4-yl)-2-oxopyrrolidine-3-carbonitrile] |
|  |  |  |  |  | 5 to 20 | 100 to 1000 | 100 to 1000 | 100 to 1000 | C[C@@H]1CN(c2ccnn3cc(-c4cnn5c4CCCC5)cc23)C(=O)[C@]1(C#N)C1CC1 [Example 173, (3R,4S)-3-cyclopropyl-4-methyl-2-oxo-1-(6-(4,5,6,7-tetrahydropyrazolo[1,5-a]pyridin-3-yl)pyrrolo[1,2-b]pyridazin-4-yl)pyrrolidine-3-carbonitrile] |

Continued, compound first:

| SMILES | IC50 ([1]; TYK2 JH1, ADP-Glo) [nM] | IC50 ([2]; JAK1 JH1, ADP-Glo) [nM] | IC50 ([3]; JAK2 JH1, ADP-Glo) [nM] | IC50 ([4]; JAK3 JH1, ADP-Glo) [nM] | IC50 [5] [nM] | IC50 ([1]; JH1 kinase domain, ADP-Glo) [nM] | IC50 ([2]; JH1 kinase domain, ADP-Glo) [nM] | IC50 ([3]; JH1 kinase domain, ADP-Glo) [nM] | IC50 ([4]; JH1 kinase domain, ADP-Glo) [nM] |
| --- | --- | --- | --- | --- | --- | --- | --- | --- | --- |
| C[C@@H]1CN(c2ccnn3cc(-n4cc(C5CN(C)CCO5)cn4)cc23)C(=O)[C@]1(C#N)C1CC1 (stereo partly drawn) [Example 317, (3R,4S)-3-cyclopropyl-4-methyl-1-(6-(4-(4-methylmorpholin-2-yl)-1H-pyrazol-1-yl)pyrrolo[1,2-b]pyridazin-4-yl)-2-oxopyrrolidine-3-carbonitrile] | 20 to 50 | 1000 to 5000 | 100 to 1000 | 100 to 1000 | > 100 |  |  |  |  |
| C[C@@H]1CN(c2nc(-c3cnn(CC4(C)COC4)c3)cn3ncc(F)c23)C(=O)[C@]1(C#N)C1CC1 [Example 303, (3R,4S)-3-cyclopropyl-1-(3-fluoro-6-(1-((3-methyloxetan-3-yl)methyl)-1H-pyrazol-4-yl)pyrazolo[1,5-a]pyrazin-4-yl)-4-methyl-2-oxopyrrolidine-3-carbonitrile] | < 5 | < 100 | < 100 | < 100 | 50 to 100 |  |  |  |  |
| C[C@@H]1CN(c2nc(-c3cnn(C4COC4)c3)cc3ncsc23)C(=O)[C@]1(C#N)C1CC1 [Example 352, (3R,4S)-3-cyclopropyl-4-methyl-1-(6-(1-(oxetan-3-yl)-1H-pyrazol-4-yl)thiazolo[5,4-c]pyridin-4-yl)-2-oxopyrrolidine-3-carbonitrile] | < 5 | < 100 | < 100 | < 100 | 20 to 50 |  |  |  |  |
| C[C@@H]1OC[C@@H]1n1cc(-c2cn3ncc(F)c3c(N3C[C@@H](C)[C@@](C#N)(C4CC4)C3=O)n2)cn1 (relative stereo) [Example 305, (3R,4S)-3-cyclopropyl-1-(3-fluoro-6-(1-((2S,3S)-2-methyloxetan-3-yl)-1H-pyrazol-4-yl)pyrazolo[1,5-a]pyrazin-4-yl)-4-methyl-2-oxopyrrolidine-3-carbonitrile and (3R,4S)-3-cyclopropyl-1-(3-fluoro-6-(1-((2R,3R)-2-methyloxetan-3-yl)-1H-pyrazol-4-yl)pyrazolo[1,5-a]pyrazin-4-yl)-4-methyl-2-oxopyrrolidine-3-carbonitrile] | < 5 | < 100 | < 100 | < 100 | > 100 |  |  |  |  |
| C[C@@H]1CN(c2nc(-c3ccc(N(C)C(=O)OC(C)(C)C)nc3)cn3nccc23)C(=O)[C@]1(C#N)C1CC1 [Example 266, tert-butyl (5-(4-((3R,4S)-3-cyano-3-cyclopropyl-4-methyl-2-oxopyrrolidin-1-yl)pyrazolo[1,5-a]pyrazin-6-yl)pyridin-2-yl)(methyl)carbamate trifluoroacetate] | < 5 | < 100 | < 100 | < 100 | 50 to 100 |  |  |  |  |
| C[C@@H]1CN(c2ccnn3cc(-n4cc(CC#N)cn4)cc23)C(=O)[C@]1(C#N)C1CC1 [Example 339, (3R,4S)-1-(6-(4-(cyanomethyl)-1H-pyrazol-1-yl)pyrrolo[1,2-b]pyridazin-4-yl)-3-cyclopropyl-4-methyl-2-oxopyrrolidine-3-carbonitrile] | 20 to 50 | 100 to 1000 | 100 to 1000 | 100 to 1000 | > 100 |  |  |  |  |
| COc1ccc(-c2cn3nccc3c(N3C[C@@H](C)[C@@](C#N)(C4CC4)C3=O)n2)nc1 [Example 213, (3R,4S)-3-cyclopropyl-1-(6-(5-methoxypyridin-2-yl)pyrazolo[1,5-a]pyrazin-4-yl)-4-methyl-2-oxopyrrolidine-3-carbonitrile] |  |  |  |  | > 100 | 5 to 20 | < 100 | 1000 to 5000 | 100 to 1000 |
| CC(C)[C@@]1(C#N)C(=O)N(c2nc(-c3cnn(C)c3)cn3ncc(F)c23)C[C@H]1C [Example 310, (3R,4S)-1-(3-fluoro-6-(1-methyl-1H-pyrazol-4-yl)pyrazolo[1,5-a]pyrazin-4-yl)-3-isopropyl-4-methyl-2-oxopyrrolidine-3-carbonitrile] | 5 to 20 | 100 to 1000 | 100 to 1000 | < 100 | > 100 |  |  |  |  |
| C[C@@H]1CN(c2ccnn3cc(-n4cc(C(F)F)cn4)cc23)C(=O)[C@]1(C#N)C1CC1 [Example 338, (3R,4S)-3-cyclopropyl-1-(6-(4-(difluoromethyl)-1H-pyrazol-1-yl)pyrrolo[1,2-b]pyridazin-4-yl)-4-methyl-2-oxopyrrolidine-3-carbonitrile] | 20 to 50 | 1000 to 5000 | 100 to 1000 | 100 to 1000 | > 100 |  |  |  |  |
| C[C@@H]1CN(c2cc(-c3cnn(C)c3)cc3nscc23)C(=O)[C@]1(C#N)C1CC1 [Example 351, (3R,4S)-3-cyclopropyl-4-methyl-1-(6-(1-methyl-1H-pyrazol-4-yl)benzo[c]isothiazol-4-yl)-2-oxopyrrolidine-3-carbonitrile] | 20 to 50 | 100 to 1000 | 100 to 1000 | 100 to 1000 |  |  |  |  |  |
| C[C@@H]1CN(c2ccnn3cc(-c4cccc5cnn(C)c45)cc23)C(=O)[C@]1(C#N)C1CC1 [Example 78, (3R,4S)-3-cyclopropyl-4-methyl-1-(6-(1-methyl-1H-indazol-7-yl)pyrrolo[1,2-b]pyridazin-4-yl)-2-oxopyrrolidine-3-carbonitrile] |  |  |  |  |  | > 100 | > 10000 | > 10000 | > 10000 |
| CC(=O)Nc1cncc(-c2cn3nccc3c(N3C[C@@H](C)[C@@](C#N)(C4CC4)C3=O)n2)c1 [Example 249, N-(5-(4-((3R,4S)-3-cyano-3-cyclopropyl-4-methyl-2-oxopyrrolidin-1-yl)pyrazolo[1,5-a]pyrazin-6-yl)pyridin-3-yl)acetamide trifluoroacetate] | > 100 | > 10000 | > 10000 | 5000 to 10000 |  |  |  |  |  |
